# Reference: patent publication US11986452B2, “Methods of reducing the risk of heart failure” (Amarin Pharmaceuticals Ireland Limited, priority 2021, dated 2024)
# Tests used:
# [1] = system: statin-treated patients with established CVD or at high risk for CVD, and hypertriglyceridemia; experiment: REDUCE-IT time-to-first-event analysis of adjudicated cardiovascular endpoints (primary, key secondary, secondary, tertiary); type: in vivo, human
# Source text: The following study, also referred to as the REDUCE-IT clinical trial, was a large cardiovascular (CV) outcome trial designed to assess CV risk reduction benefit of AMR101 treatment (commercially known as VASCEPA®) versus placebo on the 5-point primary composite endpoint: CV death, non-fatal stroke, non-fatal myocardial infarction (MI), coronary revascularizations, or unstable angina requiring hospitalization.
# A multi-center, prospective, randomized, double-blind, placebo-controlled, parallel-group study was performed to evaluate the effect of AMR101 (4 g per day) on cardiovascular health and mortality in hypertriglyceridemic patients with cardiovascular disease or at high risk for cardiovascular disease. The intended expanded indication of the study was treatment with AMR101 as an add-on to statin therapy to reduce the risk of cardiovascular events in patients with clinical cardiovascular disease or with multiple risk factors for cardiovascular disease.
# The primary objective of this study was, in patients at LDL-C goal while on statin therapy, with established cardiovascular disease (CVD) or at high risk for CVD, and hypertriglyceridemia (e.g., fasting triglycerides (TG) 200 mg/dL and <500 mg/dL), to evaluate the effect of AMR101 4 g daily on time from randomization to first occurrence of any component of the composite of the following major CV events: CV death; nonfatal MI; (including silent MI; electrocardiograms (ECGs) were performed annually for the detection of silent MIs); nonfatal stroke; coronary revascularization; and unstable angina determined to be caused by myocardial ischemia by invasive/non-invasive testing and requiring emergent hospitalization.
# The key secondary objective of this study was to evaluate the effect of AMR101 4 g daily on the time from randomization to the first occurrence of the composite of following major CV events: CV death, nonfatal MI (including silent MI), and nonfatal stroke.
# Other secondary objectives for this study were to evaluate the effect of therapy on time from randomization to the first occurrence of the following individual or composite endpoints: composite of CV death or nonfatal MI (including silent MI); fatal or nonfatal MI (including silent MI); non-elective coronary revascularization represented as the composite of emergent or urgent classifications; CV death; unstable angina determined to be caused by myocardial ischemia by invasive/non-invasive testing and requiring emergent hospitalization; fatal or nonfatal stroke; composite of total mortality, nonfatal MI (including silent MI), or nonfatal stroke; and total mortality.
# Primary Efficacy Endpoint: The primary efficacy endpoint was time from randomization to the first occurrence of the composite of the following clinical events: CV death; nonfatal MI (including silent MI; ECGs were performed annually for the detection of silent MIs); nonfatal stroke; coronary revascularization; and unstable angina determined to be caused by myocardial ischemia by invasive/non-invasive testing and requiring emergent hospitalization. The first occurrence of any of these major adverse vascular events during the follow-up period of the study were included in the incidence.
# Secondary Efficacy Endpoints: The key secondary efficacy endpoint was the time from randomization to the first occurrence of the composite of CV death, nonfatal MI (including silent MI), or nonfatal stroke. […]
# [2] = system: statin-treated patients in the icosapent ethyl group; experiment: Example 5: new heart failure by on-treatment EPA tertile (post hoc); type: in vivo, human; details: for New heart failure requiring hospitalization: HR vs lowest on treatment EPA tertile / New heart failure: HR vs lowest on treatment EPA tertile: post hoc, icosapent ethyl group only
# Source text: The mechanical or surgical intervention including mechanical circulatory support (e.g., intra-aortic balloon pump, ventricular assist device) and/or mechanical fluid removal (e.g., ultrafiltration, hemofiltration, dialysis).
# New Heart Failure/Heart Failure Not Requiring Hospitalization: is defined as an event that meets all of the following: the patient has an urgent, unscheduled office/practice or emergency department visit for a primary diagnosis of HF, but not meeting the criteria for a HF hospitalization; all signs and symptoms for HF hospitalization must be met as defined in A Heart Failure Hospitalization above; and the patient receives initiation or intensification of treatment specifically for HF, as detailed in the above section with the exception of oral diuretic therapy, which was not sufficient.
# The study design was the same as that described above in Example 1 related to the REDUCE-IT clinical trial.
# Prespecified tertiary endpoints of NHF (HR=0.95; 95% CI, 0.77-1.17; p=0.63) and NHF requiring hospitalization (HR=0.97; 0.77-1.22; p=0.78) from the REDUCE-IT clinical trial were not significant.
# [3] = 4 g per day, hierarchical testing
# [4] = 4 g/day, time to first occurrence, ITT, median follow up 4.9 years
smiles,measurement,setting,value
"CC/C=C\C/C=C\C/C=C\C/C=C\C/C=C\CCCC(=O)OCC [icosapent ethyl, eicosapentaenoic acid ethyl ester]",Cardiovascular death: RRR,[1]; [3],20%
same,Composite of cardiovascular death or nonfatal myocardial infarction: RRR,[1]; [3],25%
same,"Composite of total mortality, nonfatal myocardial infarction, or nonfatal stroke: reduction",[1]; [3],23%
same,Fatal or nonfatal myocardial infarction: RRR,[1]; [3],31%
same,Fatal or nonfatal stroke: RRR,[1]; [3],28%
same,Total mortality: reduction,[1]; [3],13%
same,Sudden death: reduction,[1]; 4 g/day vs placebo,31%
same,Cardiovascular death: HR vs placebo,"[1]; 4 g/day, ITT",0.80
same,Cardiovascular death: patients with event,"[1]; 4 g/day, ITT",4.3%
same,Total mortality: HR vs placebo,"[1]; 4 g/day, ITT",0.87
same,Total mortality: patients with event,"[1]; 4 g/day, ITT",6.7%
same,"Key secondary composite endpoint (CV death, nonfatal MI, or nonfatal stroke): patients with event",[1]; [4],11.2%
same,"Primary composite endpoint (CV death, nonfatal MI, nonfatal stroke, coronary revascularization, or unstable angina): patients with event",[1]; [4],17.2%
same,Cardiac Arrest: HR vs placebo,[1]; tertiary endpoint,0.52
same,Coronary Revascularization: HR vs placebo,[1]; tertiary endpoint,0.66
same,Elective Revascularization: HR vs placebo,[1]; tertiary endpoint,0.68
same,Emergent Revascularization: HR vs placebo,[1]; tertiary endpoint,0.62
same,Ischemic Stroke: HR vs placebo,[1]; tertiary endpoint,0.64
same,New Heart Failure Requiring Hospitalization: HR vs placebo,[1]; tertiary endpoint,0.97
same,New Heart Failure: HR vs placebo,[1]; tertiary endpoint,0.95
same,Primary Endpoint in Patients with Diabetes at Baseline: HR vs placebo,[1]; tertiary endpoint,0.77
same,Salvage Revascularization: HR vs placebo,[1]; tertiary endpoint,0.00
same,Sudden Cardiac Death: HR vs placebo,[1]; tertiary endpoint,0.69
same,Urgent Revascularization: HR vs placebo,[1]; tertiary endpoint,0.66
same,Primary Endpoint in Patients with Diabetes at Baseline: patients with event,"[1]; tertiary endpoint, 4 g/day",(18.1%)
same,Sudden Cardiac Death: patients with event,"[1]; tertiary endpoint, 4 g/day",(1.5%)
same,Achieved EPA level with statistically and clinically meaningful risk reductions in NHF,[2]; EPA tertile analyses within icosapent ethyl group,above 104 μg/mL
same,New heart failure requiring hospitalization: HR vs lowest on treatment EPA tertile,[2]; middle EPA tertile,0.47
same,New heart failure: HR vs lowest on treatment EPA tertile,[2]; middle EPA tertile,0.55
same,New heart failure requiring hospitalization: HR vs lowest on treatment EPA tertile,[2]; upper EPA tertile,0.45
same,New heart failure: HR vs lowest on treatment EPA tertile,[2]; upper EPA tertile,0.41
